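48-hour exposure; five concentrations; linearly interpolated endpoints. GI50 = concentration required for 50% inhibition of growth. At the TGI there is no net growth.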
Columns and labels:
Assay in all cases: growth of human tumour cells (NCI), 48 h
786-0 renal = tested on: 786-0 renal
A498 renal = tested on: A498 renal
A549 NSCLC = tested on: A549 NSCLC
ACHN renal = tested on: ACHN renal
BT-549 breast = tested on: BT-549 breast
CAKI-1 renal = tested on: CAKI-1 renal
CCRF-CEM leukemia = tested on: CCRF-CEM leukemia
COLO 205 colon = tested on: COLO 205 colon
DU-145 prostate = tested on: DU-145 prostate
EKVX NSCLC = tested on: EKVX NSCLC
HCC-2998 colon = tested on: HCC-2998 colon
HCT-116 colon = tested on: HCT-116 colon
HCT-15 colon = tested on: HCT-15 colon
HL-60(TB) leukemia = tested on: HL-60(TB) leukemia
HOP-62 NSCLC = tested on: HOP-62 NSCLC
HOP-92 NSCLC = tested on: HOP-92 NSCLC
HS 578T breast = tested on: HS 578T breast
HT29 colon = tested on: HT29 colon
IGROV1 ovarian = tested on: IGROV1 ovarian
K-562 leukemia = tested on: K-562 leukemia
KM12 colon = tested on: KM12 colon
LOX IMVI melanoma = tested on: LOX IMVI melanoma
M14 melanoma = tested on: M14 melanoma
MALME-3M melanoma = tested on: MALME-3M melanoma
MCF7 breast = tested on: MCF7 breast
MDA-MB-231 breast = tested on: MDA-MB-231 breast
MDA-MB-435 = tested on: MDA-MB-435
MDA-MB-468 breast = tested on: MDA-MB-468 breast
MOLT-4 leukemia = tested on: MOLT-4 leukemia
NCI-H226 lung = tested on: NCI-H226 lung
NCI-H23 lung = tested on: NCI-H23 lung
NCI-H460 lung = tested on: NCI-H460 lung
NCI-H522 lung = tested on: NCI-H522 lung
NCI/ADR-RES ovarian = tested on: NCI/ADR-RES ovarian
OVCAR-3 ovarian = tested on: OVCAR-3 ovarian
OVCAR-4 ovarian = tested on: OVCAR-4 ovarian
OVCAR-5 ovarian = tested on: OVCAR-5 ovarian
OVCAR-8 ovarian = tested on: OVCAR-8 ovarian
PC-3 prostate = tested on: PC-3 prostate
RPMI-8226 leukemia = tested on: RPMI-8226 leukemia
RXF 393 renal = tested on: RXF 393 renal
SF-268 CNS = tested on: SF-268 CNS
SF-295 CNS = tested on: SF-295 CNS
SF-539 CNS = tested on: SF-539 CNS
SK-MEL-2 melanoma = tested on: SK-MEL-2 melanoma
SK-MEL-28 melanoma = tested on: SK-MEL-28 melanoma
SK-MEL-5 melanoma = tested on: SK-MEL-5 melanoma
SK-OV-3 ovarian = tested on: SK-OV-3 ovarian
SN12C renal = tested on: SN12C renal
SNB-19 CNS = tested on: SNB-19 CNS
SNB-75 CNS = tested on: SNB-75 CNS
SR leukemia = tested on: SR leukemia
SW-620 colon = tested on: SW-620 colon
T-47D breast = tested on: T-47D breast
TK-10 renal = tested on: TK-10 renal
U251 CNS = tested on: U251 CNS
UACC-257 melanoma = tested on: UACC-257 melanoma
UACC-62 melanoma = tested on: UACC-62 melanoma
UO-31 renal = tested on: UO-31 renal

Compound: Nc1nc(-c2ccccc2)c(N=Nc2ccc(Cl)cc2Cl)s1
- GI50 (786-0 renal): 2.48 µM
- TGI (786-0 renal): 6.34 µM
- GI50 (A498 renal): 6.03 µM
- TGI (A498 renal): 18.4 µM
- GI50 (A549 NSCLC): 3.67 µM
- TGI (A549 NSCLC): 14.7 µM
- GI50 (ACHN renal): 2.81 µM
- TGI (ACHN renal): 12.9 µM
- GI50 (BT-549 breast): 2.43 µM
- TGI (BT-549 breast): 9.74 µM
- GI50 (CAKI-1 renal): 2.52 µM
- TGI (CAKI-1 renal): 12.3 µM
- GI50 (CCRF-CEM leukemia): 3.13 µM
- TGI (CCRF-CEM leukemia): 11 µM
- GI50 (COLO 205 colon): 3.91 µM
- TGI (COLO 205 colon): 14.1 µM
- GI50 (DU-145 prostate): 5.52 µM
- TGI (DU-145 prostate): 17.8 µM
- GI50 (EKVX NSCLC): 2.04 µM
- TGI (EKVX NSCLC): 12.3 µM
- GI50 (HCC-2998 colon): 1.84 µM
- TGI (HCC-2998 colon): 5.41 µM
- GI50 (HCT-116 colon): 3.33 µM
- TGI (HCT-116 colon): 12.6 µM
- GI50 (HCT-15 colon): 2.81 µM
- TGI (HCT-15 colon): 11.7 µM
- GI50 (HL-60(TB) leukemia): 3.42 µM
- TGI (HL-60(TB) leukemia): 12.9 µM
- GI50 (HOP-62 NSCLC): 4.01 µM
- TGI (HOP-62 NSCLC): 18.4 µM
- GI50 (HOP-92 NSCLC): 1.85 µM
- TGI (HOP-92 NSCLC): 5.86 µM
- GI50 (HS 578T breast): 3.14 µM
- TGI (HS 578T breast): 17.8 µM
- GI50 (HT29 colon): 3.31 µM
- TGI (HT29 colon): 10.9 µM
- GI50 (IGROV1 ovarian): 2.13 µM
- TGI (IGROV1 ovarian): 12.7 µM
- GI50 (K-562 leukemia): 3.58 µM
- TGI (K-562 leukemia): 14.9 µM
- GI50 (KM12 colon): 2.99 µM
- TGI (KM12 colon): 12.8 µM
- GI50 (LOX IMVI melanoma): 1.83 µM
- TGI (LOX IMVI melanoma): 5.17 µM
- GI50 (M14 melanoma): 2.88 µM
- TGI (M14 melanoma): 9.54 µM
- GI50 (MALME-3M melanoma): 5.38 µM
- TGI (MALME-3M melanoma): 18.1 µM
- GI50 (MCF7 breast): 2.16 µM
- TGI (MCF7 breast): 10.9 µM
- GI50 (MDA-MB-231 breast): 2.19 µM
- TGI (MDA-MB-231 breast): 8.67 µM
- GI50 (MDA-MB-435): 3.74 µM
- TGI (MDA-MB-435): 14.4 µM
- GI50 (MDA-MB-468 breast): 0.83 µM
- TGI (MDA-MB-468 breast): 3.88 µM
- GI50 (MOLT-4 leukemia): 2.73 µM
- TGI (MOLT-4 leukemia): 10.3 µM
- GI50 (NCI-H226 lung): 2.11 µM
- TGI (NCI-H226 lung): 10.4 µM
- GI50 (NCI-H23 lung): 2.91 µM
- TGI (NCI-H23 lung): 13.5 µM
- GI50 (NCI-H460 lung): 2.92 µM
- TGI (NCI-H460 lung): 11.7 µM
- GI50 (NCI-H522 lung): 2.91 µM
- TGI (NCI-H522 lung): 13.3 µM
- GI50 (NCI/ADR-RES ovarian): 3.03 µM
- TGI (NCI/ADR-RES ovarian): 10.9 µM
- GI50 (OVCAR-3 ovarian): 3.57 µM
- TGI (OVCAR-3 ovarian): 13.2 µM
- GI50 (OVCAR-4 ovarian): 3.82 µM
- TGI (OVCAR-4 ovarian): 17 µM
- GI50 (OVCAR-5 ovarian): 3.58 µM
- TGI (OVCAR-5 ovarian): 15.4 µM
- GI50 (OVCAR-8 ovarian): 5.82 µM
- TGI (OVCAR-8 ovarian): 18.7 µM
- GI50 (PC-3 prostate): 3.16 µM
- TGI (PC-3 prostate): 12.4 µM
- GI50 (RPMI-8226 leukemia): 3.31 µM
- TGI (RPMI-8226 leukemia): 15.2 µM
- GI50 (RXF 393 renal): 3.02 µM
- TGI (RXF 393 renal): 11.7 µM
- GI50 (SF-268 CNS): 4.91 µM
- TGI (SF-268 CNS): 17.8 µM
- GI50 (SF-295 CNS): 3.23 µM
- TGI (SF-295 CNS): 13.2 µM
- GI50 (SF-539 CNS): 2.78 µM
- TGI (SF-539 CNS): 10.5 µM
- GI50 (SK-MEL-2 melanoma): 3.03 µM
- TGI (SK-MEL-2 melanoma): 12.8 µM
- GI50 (SK-MEL-28 melanoma): 4.69 µM
- TGI (SK-MEL-28 melanoma): 16.5 µM
- GI50 (SK-MEL-5 melanoma): 2.6 µM
- TGI (SK-MEL-5 melanoma): 8.66 µM
- GI50 (SK-OV-3 ovarian): 3.86 µM
- TGI (SK-OV-3 ovarian): 16.3 µM
- GI50 (SN12C renal): 3.81 µM
- TGI (SN12C renal): 15.3 µM
- GI50 (SNB-19 CNS): 6.02 µM
- TGI (SNB-19 CNS): 18.7 µM
- GI50 (SNB-75 CNS): 1.57 µM
- TGI (SNB-75 CNS): 8.52 µM
- GI50 (SR leukemia): 3.1 µM
- TGI (SR leukemia): 12.8 µM
- GI50 (SW-620 colon): 2.88 µM
- TGI (SW-620 colon): 13.5 µM
- GI50 (T-47D breast): 1.03 µM
- TGI (T-47D breast): 6.56 µM
- GI50 (TK-10 renal): 5.25 µM
- TGI (TK-10 renal): 14.9 µM
- GI50 (U251 CNS): 4.28 µM
- TGI (U251 CNS): 15.8 µM
- GI50 (UACC-257 melanoma): 4.13 µM
- TGI (UACC-257 melanoma): 16.3 µM
- GI50 (UACC-62 melanoma): 2.45 µM
- TGI (UACC-62 melanoma): 12 µM
- GI50 (UO-31 renal): 1.45 µM
- TGI (UO-31 renal): 11.7 µM
